Laboratory results reported in ChEMBL document CHEMBL1649168, “Susceptibility of human immunodeficiency virus type 1 to the maturation inhibitor bevirimat is modulated by baseline polymorphisms in Gag spacer peptide 1” (Antimicrob Agents Chemother, 2009).

Assays:
[1] = system: Human immunodeficiency virus 1; assay: Antiviral activity against HIV1 HXB2 harboring SP1 T8N mutant gene relative to wild type; format: functional
[2] = system: Human immunodeficiency virus 1; assay: Antiviral activity against HIV1 NL4.3 harboring SP1 T8A mutant gene relative to wild type; format: functional
[3] = system: Human immunodeficiency virus 1; assay: Antiviral activity against HIV1 HXB2 harboring SP1 T8delta mutant gene relative to wild type; format: functional
[4] = system: Human immunodeficiency virus 1; assay: Antiviral activity against HIV1 NL4.3 harboring SP1 T8delta mutant gene relative to wild type; format: functional
[5] = system: Human immunodeficiency virus 1; assay: Antiviral activity against HIV1 NL4.3 harboring SP1 V7M mutant gene relative to wild type; format: functional
[6] = system: Human immunodeficiency virus 1; assay: Antiviral activity against HIV1 HXB2 harboring SP1 V7M mutant gene relative to wild type; format: functional
[7] = system: Human immunodeficiency virus 1; assay: Antiviral activity against HIV1 HXB2 harboring SP1 V7A mutant gene relative to wild type; format: functional
[8] = system: Human immunodeficiency virus 1; assay: Antiviral activity against HIV1 NL4.3 harboring SP1 V7A mutant gene relative to wild type; format: functional
[9] = system: Human immunodeficiency virus 1; assay: Antiviral activity against HIV1 NL4.3 harboring SP1 V7delta mutant gene relative to wild type; format: functional
[10] = system: Human immunodeficiency virus 1; assay: Antiviral activity against HIV1 HXB2 harboring SP1 Q6H mutant gene relative to wild type; format: functional
[11] = system: Human immunodeficiency virus 1; assay: Antiviral activity against HIV1 NL4.3 harboring SP1 Q6A mutant gene relative to wild type; format: functional
[12] = system: Human immunodeficiency virus 1; assay: Antiviral activity against HIV1 NL4.3 harboring SP1 Q6H mutant gene relative to wild type; format: functional
[13] = system: Human immunodeficiency virus 1; assay: Antiviral activity against HIV1 NL4.3 harboring SP1 A1V mutant gene relative to wild type; format: functional
[14] = system: Human immunodeficiency virus 1; assay: Antiviral activity against HIV1 NL4.3 harboring SP1 L231M mutant gene relative to wild type; format: functional
[15] = system: Human immunodeficiency virus 1; assay: Antiviral activity against HIV1 NL4.3 harboring SP1 mutant gene relative to wild type; format: functional
[16] = system: Human immunodeficiency virus 1; assay: Antiviral activity against HIV1 PA100 harboring SP1 mutant gene relative to wild type; format: functional
[17] = system: Human immunodeficiency virus 1; assay: Antiviral activity against HIV1 PA109 harboring SP1 mutant gene relative to wild type; format: functional
[18] = system: Human immunodeficiency virus 1; assay: Antiviral activity against HIV1 PA105 harboring SP1 mutant gene relative to wild type; format: functional
[19] = system: Human immunodeficiency virus 1; assay: Antiviral activity against HIV1 PA106 harboring SP1 mutant gene relative to wild type; format: functional
[20] = system: Human immunodeficiency virus 1; assay: Antiviral activity against HIV1 PA111 harboring SP1 mutant gene relative to wild type; format: functional
[21] = system: Human immunodeficiency virus 1; assay: Antiviral activity against HIV1 PA108 harboring SP1 mutant gene relative to wild type; format: functional
[22] = system: Human immunodeficiency virus 1; assay: Antiviral activity against HIV1 PA119 harboring SP1 mutant gene relative to wild type; format: functional
[23] = system: Human immunodeficiency virus 1; assay: Antiviral activity against HIV1 PA118 harboring SP1 mutant gene relative to wild type; format: functional
[24] = system: Human immunodeficiency virus 1; assay: Antiviral activity against HIV1 PA114 harboring SP1 mutant gene relative to wild type; format: functional
[25] = system: Human immunodeficiency virus 1; assay: Antiviral activity against HIV1 PA103 harboring SP1 mutant gene relative to wild type; format: functional
[26] = system: Human immunodeficiency virus 1; assay: Antiviral activity against HIV1 PA101 harboring SP1 mutant gene relative to wild type; format: functional
[27] = system: Human immunodeficiency virus 1; assay: Antiviral activity against HIV1 PA107 harboring SP1 mutant gene relative to wild type; format: functional
[28] = system: Human immunodeficiency virus 1; assay: Antiviral activity against HIV1 PA102 harboring SP1 mutant gene relative to wild type; format: functional
[29] = system: Human immunodeficiency virus 1; assay: Antiviral activity against HIV1 PA104 harboring SP1 mutant gene relative to wild type; format: functional
[30] = system: Human immunodeficiency virus 1; assay: Antiviral activity against HIV1 PA116 harboring SP1 mutant gene relative to wild type; format: functional
[31] = system: Human immunodeficiency virus 1; assay: Antiviral activity against HIV1 PA113 harboring SP1 mutant gene relative to wild type; format: functional
[32] = system: Human immunodeficiency virus 1; assay: Antiviral activity against HIV1 PA117 harboring SP1 mutant gene relative to wild type; format: functional
[33] = system: Human immunodeficiency virus 1; assay: Antiviral activity against HIV1 PA112 harboring SP1 mutant gene relative to wild type; format: functional
[34] = system: Human immunodeficiency virus 1; assay: Antiviral activity against HIV1 PA115 harboring SP1 mutant gene relative to wild type; format: functional
[35] = system: Human immunodeficiency virus 1; assay: Antiviral activity against HIV1 PA110 harboring SP1 mutant gene relative to wild type; format: functional
[36] = system: Human immunodeficiency virus 1; assay: Antiviral activity against HIV1 HXB2 harboring SP1 mutant gene relative to wild type; format: functional
[37] = system: Human immunodeficiency virus 1; assay: Antiviral activity against HIV1 clinical isolates; format: functional, organism-based
[38] = system: Human immunodeficiency virus 1; assay: Antiviral activity against HIV1 HXB2 harboring SP1 Q6H/V7A mutant gene relative to wild type; format: functional
[39] = system: Human immunodeficiency virus 1; assay: Antiviral activity against HIV1 HXB2 harboring SP1 Q6H/T8delta mutant gene relative to wild type; format: functional
[40] = system: Human immunodeficiency virus 1; assay: Antiviral activity against HIV1 HXB2 harboring SP1 Q6H/T8N mutant gene relative to wild type; format: functional
[41] = system: Human immunodeficiency virus 1; assay: Antiviral activity against HIV1 HXB2 harboring SP1 V7A/T8delta mutant gene relative to wild type; format: functional
[42] = system: Human immunodeficiency virus 1; assay: Antiviral activity against HIV1 HXB2 harboring SP1 V7A/T8N mutant gene relative to wild type; format: functional
[43] = system: Human immunodeficiency virus 1; assay: Antiviral activity against HIV1 HXB2 harboring SP1 Q6H /V7A/T8delta mutant gene relative to wild type; format: functional
[44] = system: Human immunodeficiency virus 1; assay: Antiviral activity against HIV1 HXB2 harboring SP1 Q6H /V7A/T8N mutant gene relative to wild type; format: functional

Compound: C=C(C)[C@@H]1CC[C@]2(C(=O)O)CC[C@]3(C)[C@H](CC[C@@H]4[C@@]5(C)CC[C@H](OC(=O)CC(C)(C)C(=O)O)C(C)(C)[C@@H]5CC[C@]43C)[C@@H]12 [BEVIRIMAT]
- fold change (FC) [1]: 52
- fold change (FC) [2]: 1.2
- fold change (FC) [3]: 52.2
- fold change (FC) [4]: 10.9
- fold change (FC) [5]: 25.3
- fold change (FC) [6]: >113
- fold change (FC) [7]: >151.4
- fold change (FC) [8]: 45.8
- fold change (FC) [9]: 65.5
- fold change (FC) [10]: 2.3
- fold change (FC) [11]: 0.9
- fold change (FC) [12]: 1.9
- fold change (FC) [13]: >77.5
- fold change (FC) [14]: 37.6
- fold change (FC) [15]: 1.1
- fold change (FC) [16]: >125.4
- fold change (FC) [17]: >125.4
- fold change (FC) [18]: >125.4
- fold change (FC) [19]: >119.5
- fold change (FC) [20]: >119.5
- fold change (FC) [21]: >116.6
- fold change (FC) [22]: >106.4
- fold change (FC) [23]: >113.7
- fold change (FC) [24]: >106.1
- fold change (FC) [25]: >83.2
- fold change (FC) [26]: >76.1
- fold change (FC) [27]: 9.8
- fold change (FC) [28]: 5.6
- fold change (FC) [29]: 9.3
- fold change (FC) [30]: 4.5
- fold change (FC) [31]: 2.3
- fold change (FC) [32]: 1.9
- fold change (FC) [33]: 1.9
- fold change (FC) [34]: 0.9
- fold change (FC) [35]: 1.5
- fold change (FC) [36]: 1.7
- IC50 [37]: 10 nM
- fold change (FC) [38]: >115.1
- fold change (FC) [39]: >111
- fold change (FC) [40]: >122.5
- fold change (FC) [41]: >130.6
- fold change (FC) [42]: >157.2
- fold change (FC) [43]: >144.3
- fold change (FC) [44]: >132.3
